Structures can show the parent of a compound that is named as a salt. One block for each compound: values may come before it.
Columns and labels:
TtdR = test system: T1, TtdR; assay: RFP reporter dose-response in C. necator H16, Hill fit; assay type: cell-based, Cupriavidus necator; conditions: inducer concentration for half-maximal activation; extracellular inducer, minimal medium, 30 °C, 80 min; whole cells with chromosomal regulator copy; read-out: Km^b
T1 construct: native full-length gene, divergent to operon starting at H16_RS10665; reporter plasmid pEH083 (plasmid assigned by list order)

BenM [1] = target: T2, BenM (Cupriavidus necator, UniProt Q0KAA5); assay: as above; assay type: cell-based; conditions: read-out: Km^b
T2 construct: native full-length gene, divergent to operon starting at H16_RS09790; reporter plasmid pEH148 (plasmid assigned by list order)
T2 sequence (Q0KAA5 1-305): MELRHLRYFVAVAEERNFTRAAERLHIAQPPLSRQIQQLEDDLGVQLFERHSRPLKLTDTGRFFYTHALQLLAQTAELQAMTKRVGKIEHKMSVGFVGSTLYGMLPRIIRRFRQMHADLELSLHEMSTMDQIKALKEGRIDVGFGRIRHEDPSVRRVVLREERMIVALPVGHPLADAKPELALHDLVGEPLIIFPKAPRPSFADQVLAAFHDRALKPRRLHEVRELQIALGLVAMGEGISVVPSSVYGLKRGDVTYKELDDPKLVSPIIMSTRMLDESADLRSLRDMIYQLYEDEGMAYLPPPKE
Description: RFP reporter dose-response in C. necator H16, Hill fit on BenM

FdsR [2] = target: T3, FdsR (Cupriavidus necator, UniProt Q0KDY4); assay: cell-based; design: RFP reporter induction by transcription factor biosensor, single time-point fluorescence in LB, relative to primary effector; conditions: Escherichia coli TOP10; relative to primary effector, E. coli, LB; read-out: % activation
T3 construct: native full-length gene, divergent to operon starting at H16_RS03165; reporter plasmid pEH134 (plasmid assigned by list order)
T3 sequence (Q0KDY4 1-364): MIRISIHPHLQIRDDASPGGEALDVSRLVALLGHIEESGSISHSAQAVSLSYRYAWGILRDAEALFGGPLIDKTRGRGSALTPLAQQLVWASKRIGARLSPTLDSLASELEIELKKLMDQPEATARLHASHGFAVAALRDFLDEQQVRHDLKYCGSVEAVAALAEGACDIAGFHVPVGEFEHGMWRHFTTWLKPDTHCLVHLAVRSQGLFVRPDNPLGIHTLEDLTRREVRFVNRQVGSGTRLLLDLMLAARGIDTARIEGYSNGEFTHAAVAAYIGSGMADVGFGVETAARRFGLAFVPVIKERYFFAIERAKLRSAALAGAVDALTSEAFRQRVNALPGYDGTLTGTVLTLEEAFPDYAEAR
Description: (§1) TRs often recognise molecules that are structurally similar to their primary effectors. For example, isopropyl β-D-1-thiogalactopyranoside is a commonly used structural analogue of allolactose, employed to control the expression of genes regulated by LacI. Here, the TR’s specificity was investigated to identify previously uncharacterised ligand–TR interactions and consequently extend the biosensor application to the detection of structurally similar or metabolically related compounds. To do so, the library of 21 native and heterologous inducible systems was screened against 46 compounds using an integrated robotic platform, as described in the previous section. […] Similarly to the former orthogonality screen (Fig. 6a), it should be noted that activation of reporter gene expression by the extracellularly added compounds likely indicates a structural resemblance to the primary ligand, a metabolic relationship or a combination thereof. To shed light on their cause of system activation, cultures of E. coli carrying the functional formate-, [compound left out]-, benzoate-, 3,4-dihydroxybenzoate-, acetoin- and β-alanine-inducible systems, active in this host organism, were evaluated for the same cross-reactivity (Supplementary Table 5).  Fig. 3 C. necator native systems mediate controllable gene expression in E. coli and P. putida. Single time-point fluorescence measurements of a, b E. coli and c, d P. putida carrying the C. necator-inducible gene expression systems composed of TR and promoter a, c or ‘promoter only’ version b, d. The plasmids harbouring the individual system– or promoter–reporter gene constructs are indicated. RFP fluorescence output was determined in the absence of inducer (light purple and light blue) and 6 h after extracellular supplementation with the corresponding primary effector to a final concentration of 5 mM (dark purple and dark blue). Data are mean ± SD, n = 3, *p < 0.05, **p < 0.01, ***p ≤ 0.001, ****p ≤ 0.0001, unpaired two-tailed t-test. Source data are provided as a Source Data file. All strains used in this study are listed in Supplementary Table 7. E. coli TOP10 (Life Technologies) was used for cloning and plasmid propagation. For single time-point fluorescence measurements and flow cytometric analyses, bacterial strains were propagated in Luria-Bertani (LB) medium. To determine the dose–responses and to evaluate inducer TR cross-reactivity, C. necator was cultivated in MM containing 1 g/L NH4Cl, 9 g/L Na2HPO4·12H2O, 1.5 g/L KH2PO4, 0.2 g/L MgSO4·7H2O, 0.02 g/L CaCl2·2H2O and 0.0012 g/L (NH4)5[Fe(C6H4O7)2] with 1 mL/L trace element solution SL7 (1.3 mL/L 25% (w/v) HCl, 0.07 g/L ZnCl2, 0.1 g/L MnCl2·4H2O, 0.062 g/L H3BO3, 0.190 g/L CoCl2·6H2O, 0.017 g/L CuCl2·2H2O, 0.024 g/L NiCl2·6H2O and 0.036 g/L Na2MoO4·2H2O) supplemented with 0.4% (w/v) sodium gluconate. If required, antibiotics were added to the growth medium at the following concentrations: 12.5 µg/mL tetracycline or 25 µg/mL chloramphenicol for E. coli, 50 µg/mL chloramphenicol for C. necator and 25 µg/mL tetracycline for P. putida. For solid media preparation, 15 g/L agar was added.

BenM [3] = target: T2, BenM; assay: cell-based; design: RFP reporter induction by transcription factor biosensor, single time-point fluorescence in LB, relative to primary effector; conditions: Escherichia coli TOP10; relative to primary effector, E. coli, LB; read-out: % activation
Description: as §1

FdsR [4] = assay: cells; design: species or system Cupriavidus necator H16; RFP reporter induction by transcription factor biosensor, fluorescence normalised to cell density, relative to primary effector; conditions: 6 h; relative to primary effector, C. necator, MM; read-out: % activation
Procedure: (§2) To screen the 441 combinations of inducer and biosensor for cross-reactivity, we employed an automated platform (see Methods section). Strains of C. necator harbouring the inducible systems were grown in MM and transferred to a 96-well microtiter plate format. After the inducers had been extracellularly added, cells were cultured for 6 h before RFP fluorescence and cell density were measured. […] The remaining six inducible systems were activated by one or more metabolites other than their cognate inducers. This cross-reactivity may be the result of either structural resemblance, a metabolic relationship or a combination thereof. For example, L-phenylalanine is converted into L-tyrosine by the phenylalanine 4-monooxygenase PhhA (H16_RS18365). Therefore, activation of the L-tyrosine-inducible system by L-phenylalanine is more likely to be due to biological conversion of the added compound into the primary effector rather than direct interaction of L-phenylalanine with HpdA. However, since the difference between the two molecules lies in a singly hydroxyl-group, an induction by structural resemblance cannot be entirely ruled out. The same applies to phenylglyoxylate that activated the benzoate-inducible system. Phenylglyoxylate is converted by C. necator into benzoate via a two-step reaction with benzaldehyde as intermediate compound. During the first reaction, carbon dioxide is generated that may also explain induction of the formate-inducible system by the structurally dissimilar phenylglyoxylate. Since carbon dioxide can subsequently be converted into formate, it is rational to postulate that the FdsR/PH16_RS03165-inducible system is activated in this case by its primary inducer. In addition to phenylglyoxylate, the benzoate-inducible system was activated by extracellular supplementation with cyclohexanecarboxylate and cumate. Cyclohexanecarboxylate shares both a structural resemblance to benzoate and downstream  Fig. 6 Orthogonality of inducible systems. a Cross-reactivity of a set of 21 inducible systems and their corresponding primary inducers. The heat map illustrates induction of reporter gene expression in the presence of the metabolite (in %) relative to the induction mediated by the corresponding primary effector. Measurements were taken 6 h after supplementation with inducer at a final concentration of 5 mM. Data are mean, n = 4. Source data are provided as a Source Data file. b Fluorescence output of individual cells of C. necator carrying pEH263 measured by flow cytometry. The vector pEH263 contains the 3,4-dihydroxybenzoate- and [compound left out]-inducible systems controlling expression of rfp and egfp, respectively. Fluorescence was determined in the absence of inducer (orange), in the presence of 3,4-dihydroxybenzoate (blue), [compound left out] (green), and both 3,4-dihydroxybenzoate and [compound left out] (purple). Effector concentrations correspond to their respective Km’s and fluorescence was measured 2 h after inducer addition.

BenM [5] = assay: cells; design: species or system Cupriavidus necator H16; RFP reporter induction by transcription factor biosensor, fluorescence normalised to cell density, relative to primary effector; conditions: 6 h; relative to primary effector, C. necator, MM; read-out: % activation
Procedure: as §2

PhgR = test system: T4, PhgR; assay: RFP reporter dose-response in C. necator H16, Hill fit; assay type: cell-based, Cupriavidus necator; conditions: inducer concentration for half-maximal activation; extracellular inducer, minimal medium, 30 °C, 80 min; whole cells with chromosomal regulator copy; read-out: Km^b
T4 construct: native full-length gene, divergent to operon starting at H16_RS05530; reporter plasmid pEH155 (plasmid assigned by list order)

NahR = target: T5, NahR (Cupriavidus necator, UniProt G0EUZ9); assay: as above; assay type: cell-based; conditions: read-out: Km^b
T5 construct: native full-length gene, divergent to operon starting at H16_RS08125; reporter plasmid pEH042 (plasmid assigned by list order); not the P. putida NahR
T5 sequence (G0EUZ9 1-300): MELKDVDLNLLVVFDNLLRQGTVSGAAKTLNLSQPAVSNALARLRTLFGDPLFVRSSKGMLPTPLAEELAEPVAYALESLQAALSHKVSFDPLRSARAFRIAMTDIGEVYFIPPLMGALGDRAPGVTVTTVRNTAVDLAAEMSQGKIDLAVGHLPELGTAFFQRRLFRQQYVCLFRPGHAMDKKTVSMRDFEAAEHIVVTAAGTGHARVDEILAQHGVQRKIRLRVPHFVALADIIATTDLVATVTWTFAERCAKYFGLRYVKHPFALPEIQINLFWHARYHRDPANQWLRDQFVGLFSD
Description: RFP reporter dose-response in C. necator H16, Hill fit on NahR

EC50 (TtdR): 61.5 ± 22.9 mM
Compound: O=C(O)C(O)C(O)C(=O)O (centres unmarked) [compound 7, Tartrate]

EC50 (BenM [1]): 12.6 ± 0.8 µM
Compound: O=C(O)c1ccccc1 [compound 6, Benzoate]

activity at 5000 µM (FdsR [2]): 0%
activity at 5000 µM (BenM [3]): 0.19%
EC50 (PhgR): 595 ± 133 µM
Compound: O=C(O)C(=O)c1ccccc1 [compound 4, Phenylglyoxylate]
activity at 5000 µM (FdsR [4]): 52%
activity at 5000 µM (BenM [5]): 17%

Compound: O=C(O)c1ccccc1O [compound 5, Salicylate]
EC50 (NahR): 2120 ± 490 nM

Reference: article PMC7057948, “A genome-wide approach for identification and characterisation of metabolite-inducible systems” (Nature Communications, 2020)
